Assay results from patent publication US8754054B2, “Antibacterial compounds, methods of making them, and uses thereof” (Albany Molecular Research, Inc., priority 2010, dated 2014).
≈ marks a conversion by molar mass, not a printed value. Where a name gives a salt, the structure may show the parent alone.

tested on: MRSA 43300; experiment: Antibacterial activity, NCCLS dilution method (Table 9); assay type: cell-based, S. aureus; conditions: Staphylococcus aureus, MRSA, MRSA 43300; dilution method; labels marked a tested as a mixture of diastereomers; read-out: MRSA 43300 MIC
From the text: NCCLS standards for antimicrobial susceptibility testing using the dilution method were followed. See: Performance Standards for Antimicrobial Susceptibility Testing; Fourteenth Informational Supplement. NCCLS Document M100-S14 (ISBN 1-56238-516-X), 2004. NCCLS, 940 West Valley Road, Suite 1400, Wayne, Pa. 19087-1898 USA, 2004; Methods for Dilution Antimicrobial Susceptibility Tests for Bacteria that Grow Aerobically; Approved Standard—Sixth Edition. NCCLS document M7-A6 (IBSBN 1-56238-486-4), NCCLS, 940 West Valley Road, Suite 1400, Wayne, Pa. 19087-1898 USA, 2003, which are hereby incorporated by reference in their entirety.

SMILES | MIC [µg/mL]
COC(=O)c1c(C)cc2c(c1O)[C@]1(O)C(=O)c3cc4c(c(O)c3C(=O)[C@]1(OC)[C@H](O)C2)C(=O)C=C(N[C@H]1O[C@@H](C)[C@H](OC)[C@@H](O)[C@H]1OC)C4(O)c1ccccc1 (single isomer, unassigned) [Example 56] | 8 (≈ 10.3 µM)
COC(=O)c1c(C)cc2c(c1OCc1ccccc1)[C@]1(O)C(=O)c3cc4c(c(O)c3C(=O)[C@]1(OC)[C@H](O)C2)C(=O)C=C(N[C@H]1O[C@@H](C)[C@H](OC)[C@@H](O)[C@H]1OC)C4=O [Example 7, (6R,6aS,14aR)-Methyl 1-(benzyloxy)-6,8,14a-trihydroxy-11-((2S,3R,4R,5R,6S)-4-hydroxy-3,5-dimethoxy-6-methyltetrahydro-2H-pyran-2-ylamino)-6a-methoxy-3-methyl-7,9,12,14-tetraoxo-5,6,6a,7,9,12,14,14a-octahydrobenzo[a]tetracene-2-carboxylate] | 0.12 (≈ 0.152 µM)
CO[C@@H]1[C@@H](O)[C@@H](OC)C(NC2=CC(=O)c3c(cc4c(c3O)C(=O)[C@]3(OC)[C@H](O)Cc5cc(C)c(C(=O)NCc6ccccc6)c(O)c5[C@]3(O)C4=O)C2=O)O[C@H]1C (mixture of isomers) [Example 30, (6R,6aS,14aR)—N-Benzyl-1,6,8,14a-tetrahydroxy-11-((3R,4R,5R,6S)-4-hydroxy-3,5-dimethoxy-6-methyltetrahydro-2H-pyran-2-ylamino)-6a-methoxy-3-methyl-7,9,12,14-tetraoxo-5,6,6a,7,9,12,14,14a-octahydrobenzo[a]tetracene-2-carboxamide] | 0.12 to 0.5 (≈ 0.155 to 0.647 µM)
COC(=O)c1c(C)cc2c(c1OCC(=O)OCc1ccccc1)[C@]1(O)C(=O)c3cc4c(c(O)c3C(=O)[C@]1(OC)[C@H](O)C2)C(=O)C=C(N[C@H]1O[C@@H](C)[C@H](OC)[C@@H](O)[C@H]1OC)C4=O [Example 8, (6R,6aS,14aR)-Methyl 1-(2-(benzyloxy)-2-oxoethoxy)-6,8,14a-trihydroxy-11-((2S,3R,4R,5R,6S)-4-hydroxy-3,5-dimethoxy-6-methyltetrahydro-2H-pyran-2-ylamino)-6a-methoxy-3-methyl-7,9,12,14-tetraoxo-5,6,6a,7,9,12,14,14a-octahydrobenzo[a]tetracene-2-carboxylate] | 1 (≈ 1.18 µM)
CO[C@@H]1[C@@H](O)[C@@H](OC)C(NC2=CC(=O)c3c(cc4c(c3O)C(=O)[C@]3(OC)[C@H](O)Cc5cc(C)c(C(=O)Nc6ccc(-c7ccccc7)cc6)c(O)c5[C@]3(O)C4=O)C2=O)O[C@H]1C (mixture of isomers) [Example 23, (6R,6aS,14aR)—N-(Biphenyl-4-yl)-1,6,8,14a-tetrahydroxy-11-((3R,4R,5R,6S)-4-hydroxy-3,5-dimethoxy-6-methyltetrahydro-2H-pyran-2-ylamino)-6a-methoxy-3-methyl-7,9,12,14-tetraoxo-5,6,6a,7,9,12,14,14a-octahydrobenzo[a]tetracene-2-carboxamide] | 4 (≈ 4.79 µM)
CO[C@@H]1[C@@H](O)[C@@H](OC)C(NC2=CC(=O)c3c(cc4c(c3O)C(=O)[C@]3(OC)[C@H](O)Cc5cc(C)c(C(=O)OCc6ccccc6)c(O)c5[C@]3(O)C4=O)C2=O)O[C@H]1C (mixture of isomers) [Example 37, (6R,6aS,14aR)-Benzyl 1,6,8,14a-tetrahydroxy-11-((3R,4R,5R,6S)-4-hydroxy-3,5-dimethoxy-6-methyltetrahydro-2H-pyran-2-ylamino)-6a-methoxy-3-methyl-7,9,12,14-tetraoxo-5,6,6a,7,9,12,14,14a-octahydrobenzo[a]tetracene-2-carboxylate] | 0.25 (≈ 0.323 µM)
COC(=O)c1c(C)cc2c(c1OCC(=O)N1CCCCC1)[C@]1(O)C(=O)c3cc4c(c(O)c3C(=O)[C@]1(OC)[C@H](O)C2)C(=O)C=C(N[C@H]1O[C@@H](C)[C@H](OC)[C@@H](O)[C@H]1OC)C4=O [Example 12, (6R,6aS,14aR)-Methyl 6,8,14a-trihydroxy-11-((2S,3R,4R,5R,6S)-4-hydroxy-3,5-dimethoxy-6-methyltetrahydro-2H-pyran-2-ylamino)-6a-methoxy-3-methyl-7,9,12,14-tetraoxo-1-(2-oxo-2-(piperidin-1-yl)ethoxy)-5,6,6a,7,9,12,14,14a-octahydrobenzo[a]tetracene-2-carboxylate] | 0.25 to 1 (≈ 0.304 to 1.22 µM)
COCC/N=C1\C=C(N[C@H]2O[C@@H](C)[C@H](OC)[C@@H](O)[C@H]2OC)C(=O)c2cc3c(c(O)c21)C(=O)[C@]1(OC)[C@H](O)Cc2cc(C)c(C(=O)OC)c(O)c2[C@]1(O)C3=O [Example 46, (6R,6aS,14aR,E)-methyl 1,6,8,14a-tetrahydroxy-11-((2S,3R,4R,5R,6S)-4-hydroxy-3,5-dimethoxy-6-methyltetrahydro-2H-pyran-2-ylamino)-6a-methoxy-9-(2-methoxyethylimino)-3-methyl-7,12,14-trioxo-5,6,6a,7,9,12,14,14a-octahydrobenzo[a]tetracene-2-carboxylate] | 1 (≈ 1.32 µM)
COC(=O)c1c(C)cc2c(c1OCC(=O)O)[C@]1(O)C(=O)c3cc4c(c(O)c3C(=O)[C@]1(OC)[C@H](O)C2)C(=O)C=C(NC1O[C@@H](C)[C@H](OC)[C@@H](O)[C@H]1OC)C4=O (stereo partly drawn) [Example 9, 2-((6R,6aS,14aR)-6,8,14a-Trihydroxy-11-((3R,4R,5R,6S)-4-hydroxy-3,5-dimethoxy-6-methyltetrahydro-2H-pyran-2-ylamino)-6a-methoxy-2-(methoxycarbonyl)-3-methyl-7,9,12,14-tetraoxo-5,6,6a,7,9,12,14,14a-octahydrobenzo[a]tetracen-1-yloxy)acetic acid] | 32 (≈ 42.3 µM)
CO[C@@H]1[C@@H](O)[C@@H](OC)C(NC2=CC(=O)c3c(cc4c(c3O)C(=O)[C@]3(OC)[C@H](O)Cc5cc(C)c(C(=O)N6CCCC6)c(O)c5[C@]3(O)C4=O)C2=O)O[C@H]1C (mixture of isomers) [Example 22, (6R,6aS,14aR)-1,6,8,14a-Tetrahydroxy-11-((3R,4R,5R,6S)-4-hydroxy-3,5-dimethoxy-6-methyltetrahydro-2H-pyran-2-ylamino)-6a-methoxy-3-methyl-2-(pyrrolidine-1-carbonyl)-6,6a-dihydrobenzo[a]tetracene-7,9,12,14(5H,14aH)-tetraone] | 1 (≈ 1.36 µM)
CO[C@@H]1[C@@H](O)[C@@H](OC)[C@@H](NC2=CC(=O)c3c(cc4c(c3O)C(=O)[C@]3(OC)[C@H](O)Cc5cc(C)c(C(=O)OCCCc6ccccc6)c(O)c5[C@]3(O)C4=O)C2=O)O[C@H]1C [Example 33, (6R,6aS,14aR)-3-Phenylpropyl 1,6,8,14a-tetrahydroxy-11-((2S,3R,4R,5R,6S)-4-hydroxy-3,5-dimethoxy-6-methyltetrahydro-2H-pyran-2-ylamino)-6a-methoxy-3-methyl-7,9,12,14-tetraoxo-5,6,6a,7,9,12,14,14a-octahydrobenzo[a]tetracene-2-carboxylate] | 1 to 2 (≈ 1.25 to 2.49 µM)
COC(=O)c1c(C)cc2c(c1O)[C@]1(O)C(=O)c3cc4c(c(O)c3C(=O)[C@]1(OC)[C@H](O)C2)C(=O)C=C(N[C@H]1O[C@@H](C)[C@H](OC)[C@@H](O[C@@H]2O[C@H](CO)[C@@H](O)[C@H](O)[C@H]2O)[C@H]1OC)C4=O [Example 54, (6R,6aS,14aR)-Methyl 11-((2S,3R,4R,5S,6S)-3,5-dimethoxy-6-methyl-4-((2S,3R,4S,5S,6R)-3,4,5-trihydroxy-6-(hydroxymethyl)tetrahydro-2H-pyran-2-yloxy)tetrahydro-2H-pyran-2-ylamino)-1,6,8,14a-tetrahydroxy-6a-methoxy-3-methyl-7,9,12,14-tetraoxo-5,6,6a,7,9,12,14,14a-octahydrobenzo[a]tetracene-2-carboxylate] | 2 (≈ 2.33 µM)
CO[C@@H]1[C@@H](O)[C@@H](OC)C(NC2=CC(=O)c3c(cc4c(c3O)C(=O)[C@]3(OC)[C@H](O)Cc5cc(C)c(C(=O)N6CCCCC6)c(O)c5[C@]3(O)C4=O)C2=O)O[C@H]1C (mixture of isomers) [Example 21, (6R,6aS,14aR)-1,6,8,14a-Tetrahydroxy-11-((3R,4R,5R,6S)-4-hydroxy-3,5-dimethoxy-6-methyltetrahydro-2H-pyran-2-ylamino)-6a-methoxy-3-methyl-2-(piperidine-1-carbonyl)-6,6a-dihydrobenzo[a]tetracene-7,9,12,14(5H,14aH)-tetraone] | 1 (≈ 1.33 µM)
COC(=O)c1c(C)cc2c(c1OC)[C@]1(O)C(=O)c3cc4c(c(O)c3C(=O)[C@]1(OC)[C@H](O)C2)C(=O)C=C(N[C@H]1O[C@@H](C)[C@H](OC)[C@@H](O)[C@H]1OC)C4=O [Example 4, (6R,6aS,14aR)-Methyl 6,8,14a-trihydroxy-11-((2S,3R,4R,5R,6S)-4-hydroxy-3,5-dimethoxy-6-methyltetrahydro-2H-pyran-2-ylamino)-1,6a-dimethoxy-3-methyl-7,9,12,14-tetraoxo-5,6,6a,7,9,12,14,14a-octahydrobenzo[a]tetracene-2-carboxylate] | 0.06 to 0.12 (≈ 0.0843 to 0.169 µM)
COC(=O)c1c(C)cc2c(c1O)[C@]1(O)C(=O)c3cc4c(c(O)c3C(=O)[C@]1(OC)[C@H](O)C2)C(=O)C=C(N[C@H]1O[C@@H](C)[C@H](OC)[C@@H](O)[C@H]1OC)C4(O)c1ccc(F)cc1 (single isomer, unassigned) [Example 58] | 8 to 16 (≈ 10.1 to 20.2 µM)

same assay, conditions: Staphylococcus aureus, MRSA, read-out: MRSA 43300 MIC

SMILES | MIC [µg/mL]
CO[C@@H]1[C@@H](O)[C@@H](OC)C(NC2=CC(=O)c3c(cc4c(c3O)C(=O)[C@]3(OC)[C@H](O)Cc5cc(C)c(C(=O)NCc6cccnc6)c(O)c5[C@]3(O)C4=O)C2=O)O[C@H]1C (mixture of isomers) [Example 17, (6R,6aS,14aR)-1,6,8,14a-Tetrahydroxy-11-((3R,4R,5R,6S)-4-hydroxy-3,5-dimethoxy-6-methyltetrahydro-2H-pyran-2-ylamino)-6a-methoxy-3-methyl-7,9,12,14-tetraoxo-N-(pyridin-3-ylmethyl)-5,6,6a,7,9,12,14,14a-octahydrobenzo[a]tetracene-2-carboxamide hydrochloride] | 32
